Data as given in patent publication US10752640B2, “Compounds active towards bromodomains” (NUEVOLUTION A/S, priority 2014, dated 2020).
pIC50: −log10 of the molar value.

Target: BRD4 protein (Homo sapiens, UniProt O60885)
Test: FRET assay, half maximal inhibitory concentration (IC50)
Assay type: binding
Settings: BRD4 protein 50 nM, Biotin-H4KAc4 peptide 12.5 nM
Procedure, shortened: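 HTRF: 50 nM BRD4 preincubated 30 min at room temperature with compound (10-fold series from 50 μM in 12.5% DMSO) in 50 mM HEPES pH 7.5, 100 mM NaCl, 0.05% CHAPS. Then 12.5 nM biotin-H4KAc4 peptide for 30 min, and anti-GST XL665 (10 nM) plus streptavidin cryptate (2.4 nM) with 0.4 M KF for 1 h. IC50 by variable-slope fit.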

[1] = A Further List of Classification

With `CC(=O)c1cc(C(=O)Nc2ccc3nc(O)cc(C)c3c2)c(N2CCCC2CN(C)C)cn1` (centres unmarked) [Compound-212, 2-acetyl-5-(2-((dimethylamino)methyl)pyrrolidin-1-yl)-N-(2-hydroxy-4-methylquinolin-6-yl)isonicotinamide] the pIC50 (List of Classification) was over 6.70.

`Cc1cc(O)nc2ccc(NC(=O)c3cc(C(C)O)ncc3N3CCCC3CN(C)C)cc12` (centres unmarked) [Compound-213, 5-(2-((dimethylamino)methyl)pyrrolidin-1-yl)-N-(2-hydroxy-4-methylquinolin-6-yl)-2-(1-hydroxyethyl)isonicotinamide] showed a pIC50 (List of Classification) of over 6.70.

`CN1C(=O)CCc2cc(NC(=O)c3ccccc3N3CCOCC3)ccc21` [S1, N-(1-methyl-2-oxo-3,4-dihydroquinolin-6-yl)-2-morpholino-benzamide] gave a pIC50 [1] of 5.00 to 6.00.

Work on `Cc1cc(O)nc2ccc(NC(=O)c3ccccc3N3CCOCC3)cc12` [S2, N-(2-hydroxy-4-methyl-6-quinolyl)-2-morpholino-benzamide] yielded a pIC50 [1] of 6.30 to 6.70.

With `Cc1ccc(C(=O)Nc2ccc3c(c2)CCC(=O)N3C)cc1S(=O)(=O)NC1CCCC1` [S3, 3-(cyclopentylsulfamoyl)-4-methyl-N-(1-methyl-2-oxo-3,4-dihydroquinolin-6-yl)benzamide] the pIC50 [1] was 5.00 to 6.00.

`CN1C(=O)CCc2cc(NC(=O)c3cccnc3N3CCOCC3)ccc21` [S4, N-(1-methyl-2-oxo-3,4-dihydroquinolin-6-yl)-2-morpholino-pyridine-3-carboxamide] gave a pIC50 [1] of 5.00 to 6.00.

`CN1CCN(c2ccccc2C(=O)Nc2ccc3c(c2)OCC(=O)N3)CC1` [S5, 2-(4-methylpiperazin-1-yl)-N-(3-oxo-4H-1,4-benzoxazin-7-yl)benzamide] showed a pIC50 [1] of under 5.00.

Molecule `CN1CCN(c2ccccc2C(=O)Nc2ccc3c(c2)CCC(=O)N3C)CC1` [S6, N-(1-methyl-2-oxo-3,4-dihydroquinolin-6-yl)-2-(4-methylpiperazin-1-yl)benzamide] has a pIC50 [1] of under 5.00.

`CN1CCN(c2ccccc2C(=O)Nc2ccc3c(c2)OCC(=O)N3C)CC1` [S7, N-(4-methyl-3-oxo-1,4-benzoxazin-7-yl)-2-(4-methylpiperazin-1-yl)benzamide] was tested, and the pIC50 [1] was under 5.00.

With `CN1C(=O)CCc2cc(NC(=O)c3ccccc3N3CCN(c4cnccn4)CC3)ccc21` [S8, N-(1-methyl-2-oxo-3,4-dihydroquinolin-6-yl)-2-(4-pyrazin-2-ylpiperazin-1-yl)benzamide] the pIC50 [1] was under 5.00.

With `CN1C(=O)CCc2cc(NC(=O)c3cc([N+](=O)[O-])ccc3N3CCOCC3)ccc21` [S9, N-(1-methyl-2-oxo-3,4-dihydroquinolin-6-yl)-2-morpholino-5-nitro-benzamide] the pIC50 [1] was under 5.00.

`Cc1cc(O)nc2ccc(NC(=O)c3ccccc3N3CCN(C)CC3)cc12` [S10, N-(2-hydroxy-4-methyl-6-quinolyl)-2-(4-methylpiperazin-1-yl)benzamide] showed a pIC50 [1] of 5.00 to 6.00.

In the case of `Cc1cc(O)nc2ccc(NC(=O)c3ccccc3N3CCN(c4cnccn4)CC3)cc12` [S11, N-(2-hydroxy-4-methyl-6-quinolyl)-2-(4-pyrazin-2-ylpiperazin-1-yl)benzamide], the pIC50 [1] was 5.00 to 6.00.

With `Cc1cc(O)nc2ccc(NC(=O)c3cc(S(N)(=O)=O)ccc3N3CCOCC3)cc12` [S12, N-(2-hydroxy-4-methyl-6-quinolyl)-2-morpholino-5-sulfamoyl-benzamide] the pIC50 [1] was over 6.70.

For `CN1C(=O)CCc2cc(NC(=O)c3cc(S(N)(=O)=O)ccc3N3CCOCC3)ccc21` [S13, N-(1-methyl-2-oxo-3,4-dihydroquinolin-6-yl)-2-morpholino-5-sulfamoyl-benzamide], the pIC50 [1] was 5.00 to 6.00.

With `Cc1cc(O)nc2ccc(NC(=O)c3cc(N4C(=O)CCC4=O)ccc3N3CCOCC3)cc12` [S14, 5-(2,5-dioxopyrrolidin-1-yl)-N-(2-hydroxy-4-methyl-6-quinolyl)-2-morpholino-benzamide] the pIC50 [1] was 6.30 to 6.70.

In the case of `Cc1cc(O)nc2ccc(NC(=O)c3cc(NS(=O)(=O)c4ccccc4)ccc3N3CCN(C)CC3)cc12` [S15, 5-(benzenesulfonamido)-N-(2-hydroxy-4-methyl-6-quinolyl)-2-(4-methylpiperazin-1-yl)benzamide], the pIC50 [1] was 6.00 to 6.30.
